# Data taken from patent US8414878B2, “Irilis biopreparation based on bacillus-strain bacteria, bacillus subtilis and bacillus licheniformis contained therein” (priority 2005, dated 2013).
# What was measured:
# [1] = tested on: B. licheniformis VKPM B-8610; assay: Sensitivity to antibiotics, delay zones of culture growth; type: cell-based, Bacillus licheniformis; settings: strain B. licheniformis VKPM B-8610
# B. subtilis VKPMB-8611 = assay: as above; type: cell-based, Bacillus subtilis; settings: strain B. subtilis VKPMB-8611
Compound,Diameter of delay zones of cultures growth [1],Diameter of delay zones of cultures growth (B. subtilis VKPMB-8611)
NCC[C@H](O)C(=O)N[C@@H]1C[C@H](N)[C@@H](O[C@H]2O[C@H](CN)[C@@H](O)[C@H](O)[C@H]2O)[C@H](O)[C@H]1O[C@H]1O[C@H](CO)[C@@H](O)[C@H](N)[C@H]1O [Amicacin],17 + 0.2 mm,22 ± 0.3 mm
CC1(C)S[C@@H]2[C@H](NC(=O)[C@H](N)c3ccc(O)cc3)C(=O)N2[C@H]1C(=O)O [Amoscipillin],16 + 0.1 mm,19 ± 0.2 mm
CC1(C)S[C@@H]2[C@H](NC(=O)[C@H](N)c3ccccc3)C(=O)N2[C@H]1C(=O)O [Ampicillin],0 mm,11 ± 0.2 mm
CC1(C)S[C@@H]2[C@H](NC(=O)[C@H](NC(=O)N3CCNC3=O)c3ccccc3)C(=O)N2[C@H]1C(=O)O [Azlocillin],16 + 0.1 mm,19 ± 0.1 mm
CC1(C)S[C@@H]2[C@H](NC(=O)Cc3ccccc3)C(=O)N2[C@H]1C(=O)O [Benzylpenicillin],3 ± 0.2 mm,7 ± 0.1 mm
CC1(C)S[C@@H]2[C@H](NC(=O)C(C(=O)O)c3ccccc3)C(=O)N2[C@H]1C(=O)O (stereo partly drawn) [Carbenicillin],20 + 0.1 mm,23 ± 0.5 mm
Cn1nnnc1SCC1=C(C(=O)O)N2C(=O)[C@@H](NC(=O)[C@H](O)c3ccccc3)[C@H]2SC1 [Cefamandole],15 + 0.1 mm,35 ± 0.3 mm
Cc1nnc(SCC2=C(C(=O)O)N3C(=O)[C@@H](NC(=O)Cn4cnnn4)[C@H]3SC2)s1 [Cefazolin],19 + 0.2 mm,25 ± 0.2 mm
CCN1CCN(C(=O)N[C@@H](C(=O)N[C@@H]2C(=O)N3C(C(=O)O)=C(CSc4nnnn4C)CS[C@H]23)c2ccc(O)cc2)C(=O)C1=O [Cefoperazone],13 + 0.1 mm,15 ± 0.2 mm
CO/N=C(\C(=O)N[C@@H]1C(=O)N2C(C(=O)O)=C(COC(C)=O)CS[C@H]12)c1csc(N)n1 [Cefotaxime],9 + 0.1 mm,15 ± 0.1 mm
CO[C@@]1(NC(=O)Cc2cccs2)C(=O)N2C(C(=O)O)=C(COC(N)=O)CS[C@@H]21 [Cefoxitin],13 + 0.1 mm,18 ± 0.1 mm
CC(C)(O/N=C(\C(=O)N[C@@H]1C(=O)N2C(C(=O)[O-])=C(C[n+]3ccccc3)CS[C@H]12)c1csc(N)n1)C(=O)O [Ceftazidime],13 + 02 mm,6 ± 0.3 mm
CO/N=C(\C(=O)N[C@@H]1C(=O)N2C(C(=O)O)=CCS[C@H]12)c1csc(N)n1 [Ceftizoxime],11 ± 0.1 mm,3 ± 0.1 mm
CO/N=C(\C(=O)N[C@@H]1C(=O)N2C(C(=O)O)=C(CSc3nc(=O)c(=O)[nH]n3C)CS[C@H]12)c1csc(N)n1 [Ceftriaxone],12 + 02 mm,20 + 0.4 mm
CO/N=C(\C(=O)N[C@@H]1C(=O)N2C(C(=O)O)=C(COC(N)=O)CS[C@H]12)c1ccco1 [Cefuroxime],3 ± 0.1 mm,2 ± 0.1 mm
CC(=O)OCC1=C(C(=O)O)N2C(=O)[C@@H](NC(=O)Cc3cccs3)[C@H]2SC1 [Cephalothin],21 + 0.3 mm,35 ± 0.1 mm
O=C(N[C@H](CO)[C@H](O)c1ccc([N+](=O)[O-])cc1)C(Cl)Cl [Chloramphenicol],10 ± 0.1 mm,18 ± 0.3 mm
CCC[C@@H]1C[C@@H](C(=O)N[C@@H]([C@H]2O[C@H](SC)[C@H](O)[C@@H](O)[C@H]2O)[C@H](C)Cl)N(C)C1 [Clindamycin],12 + 0.1 mm,9 + 0.2 mm

Compound,Diameter of delay zones of cultures growth [1],Diameter of delay zones of cultures growth (B. subtilis VKPMB-8611)
C[C@@H](O)[C@H]1C(=O)N2C(C(=O)O)=C(SCCN=CN)C[C@H]12 [Imipenems],30 + 0.1 mm,38 ± 0.2 mm
NC[C@H]1O[C@H](O[C@H]2[C@H](O)[C@@H](O[C@H]3O[C@H](CO)[C@@H](O)[C@H](N)[C@H]3O)[C@H](N)C[C@@H]2N)[C@H](O)[C@@H](O)[C@@H]1O [Kanamycin],21 + 0.1 mm,22 ± 0.2 mm
COc1cccc(OC)c1C(=O)N[C@@H]1C(=O)N2[C@@H]1SC(C)(C)[C@@H]2C(=O)O [Methicillin],10 ± 0D,20 ± 0.1 mm
CC1(C)S[C@@H]2[C@H](NC(=O)[C@H](NC(=O)N3CCN(S(C)(=O)=O)C3=O)c3ccccc3)C(=O)N2[C@H]1C(=O)O [Mezlocillin],15 + 0.2 mm,21 ± 0.2 mm
CO[C@@]1(NC(=O)C(C(=O)O)c2ccc(O)cc2)C(=O)N2C(C(=O)O)=C(CSc3nnnn3C)CO[C@@H]21 (stereo partly drawn) [Mocsalactam],12 + 03 mm,–
CCn1cc(C(=O)O)c(=O)c2ccc(C)nc21 [Nalidixic acid],15 + 0.1 mm,21 ± 0.1 mm
O=C1CN(/N=C/c2ccc([N+](=O)[O-])o2)C(=O)N1 [Nitrofurantoin],20 + 0.1 mm,15 + 0.2 mm
CCn1cc(C(=O)O)c(=O)c2cc(F)c(N3CCNCC3)cc21 [Norfloxacin],25 + 0.2 mm,24 ± 0.2 mm
Cc1onc(-c2ccccc2)c1C(=O)N[C@@H]1C(=O)N2[C@@H]1SC(C)(C)[C@@H]2C(=O)O [Oxacillin],11 + 0.1 mm,15 ± 0.3 mm
CCN1CCN(C(=O)N[C@@H](C(=O)N[C@@H]2C(=O)N3[C@@H]2SC(C)(C)[C@@H]3C(=O)O)c2ccccc2)C(=O)C1=O [Piperacillin],11 + 0.1 mm,15 + 03 mm
CN(C)[C@@H]1C(O)=C(C(N)=O)C(=O)[C@@]2(O)C(O)=C3C(=O)c4c(O)cccc4[C@@](C)(O)[C@H]3C[C@@H]12 [Tetracycline],24 + 0.1 mm,26 + 0.1 mm
CC1(C)S[C@@H]2[C@H](NC(=O)[C@H](C(=O)O)c3ccsc3)C(=O)N2[C@H]1C(=O)O [Ticarcillin],21 + 0.2 mm,25 ± 0.4 mm
NC[C@H]1O[C@H](O[C@H]2[C@H](O)[C@@H](O[C@H]3O[C@H](CO)[C@@H](O)[C@H](N)[C@H]3O)[C@H](N)C[C@@H]2N)[C@H](N)C[C@@H]1O [Tobramycin],20 + 0.2 mm,25 ± 0.1 mm
COc1cc(Cc2cnc(N)nc2N)cc(OC)c1OC [Ttrimethoprim],25 + 0.2 mm,23 ± 0.1 mm
CN[C@H](CC(C)C)C(=O)N[C@H]1C(=O)N[C@@H](CC(N)=O)C(=O)N[C@H]2C(=O)N[C@H]3C(=O)N[C@H](C(=O)N[C@H](C(=O)O)c4cc(O)cc(O)c4-c4cc3ccc4O)[C@H](O)c3ccc(c(Cl)c3)Oc3cc2cc(c3O[C@@H]2O[C@H](CO)[C@@H](O)[C@H](O)[C@H]2O[C@H]2C[C@](C)(N)[C@H](O)[C@H](C)O2)Oc2ccc(cc2Cl)[C@H]1O [Vancomycin],10 ± 0.1 mm,12 ± 0.1 mm
Gentamicin,19 + 0.2 mm,25 ± 0.3 mm
Polymyxin E,10 + 0.2 mm,11 + 0.1 mm
